Experimental data reported in patent US20030134803A1, “Use of sulfonated compounds as a barrier contraceptive” (The Regents of the University of California, priority 2002, published 2003).
One block for each substance: values may come before it.

Experiments:
[1] = test system: zona pellucida of immature oocytes; assay: sperm-zona pellucida binding assay (ZBA); assay type: cell-based, cynomolgus macaque
sperm = sperm percent motility and progression scoring; assay type: cell-based, cynomolgus macaque; conditions: for effect on percentage of motile sperm and sperm progression: zona binding studies, 1.5 mg/ml, pre- or post-capacitation treatment
Experimental: Four adult male cynomolgus macaques which were caged individually at the California Regional Primate Research Center (CRPRC) in compliance with the Federal Animal Welfare Act and the NIH Guidelines for Care and Use of Laboratory Animals. The animals were maintained on a 12L:12D light cycle at 25-27° C. and were given a diet of Purina monkey chow and water ad libitum. Semen samples were collected by electroejaculation, e.g., as described in Sarason et al., The use of nonmetal electrodes in ejaculation of restrained but unanesthetized macaques, (1991) J. Med. Primatol., 20:122-125, into 15 ml centrifuge tubes containing 5 ml of Hepes-buffered BWW maintained at room temperature (RT). After 15-30 min, the coagulum was removed, the semen samples were further diluted with an additional 5 ml of Hepes-buffered BWW containing 3 mg/ml bovine serum albumin (BSA) and then concentrated into a 1 ml pellet by centrifugation at 300×g for 10 minutes. LSA (previously dissolved in hepes-buffered BWW salts) was added to half of the pellet to give a final concentration of 1.5 mg LSA/ml of sperm. An equal volume of hepes-buffered BWW salts was added to the other half of the pellet. Both aliquots were incubated at room temperature for 40 minutes and then washed and capacitated, e.g., as described in Tollner T L, et al., Soybean trypsin inhibitor as a probe for the acrosome reaction in motile cynomolgus macaque sperm (2000) Zygote 8:127-137. Briefly, sperm were centrifuged through 3.5 ml of 80% Percoll for 25 minutes at 400 g. The supernatant containing Percoll and any remaining sperm was removed and the sperm pellet was resuspended in bicarbonate-buffered BWW, e.g., as described in Overstreet et al., Penetration of human spermatozoa into the human zona pellucida and the zona-free hamster egg: a study of fertile donors and infertile patients, (1980), Fertil. Steril., 33:534-542; and, Overstreet et al., In vitro capacitation of human spermatozoa after passage through a column of cervical mucus, (1980) Fert. Steril., 34:604-606, containing 30 mg/ml of BSA. Sperm were washed two more times by centrifugation at 300 g for 10 minutes and dilution in this medium. […] Following activation, 200 sperm per treatment were scored for percent motility at 200× magnification with phase-contrast optics using a BH-2 series Olympus microscope. Progression was assessed with a 0-4 rating system (0=no progressive sperm; 1=1-25% of motile sperm have forward (space gaining) progressive motility; 2=26-50% of motile sperm have forward progressive motility; 3=51-75% of motile sperm have forward progressive motility; 4=76-100% of motile sperm have forward progressive motility).

mature oocytes = assay: in vitro fertilization (IVF) with treated sperm; assay type: cell-based, cynomolgus macaque; conditions: 1.5 mg/ml
[2] = oral; cited from earlier work
[3] = 1.5 mg/ml added post-capacitation (PC, Post-C), after activation
[4] = 1.5 mg/ml added pre-capacitation (Pre-C, pre-wash PW), prior to washing through Percoll and overnight incubation

inhibition of sperm-zona binding as compared to controls [1, 3]: 91.5%
inhibition of sperm-zona binding as compared to controls [1, 4]: 36%
Substance: Fucoidan [reference compound]
effect on percentage of motile sperm and sperm progression (sperm): No motility changes were observed

Substance: Lignosulfonic acid [LSA]
inhibition of sperm-zona binding as compared to controls [1, 3]: 92.5%
inhibition of sperm-zona binding as compared to controls [1, 4]: 82.5%
effect on sperm motility in IVF (sperm; IVF sperm preparations): no difference between treatments on sperm motility
percentage of sperm developing hyperactivated motility patterns consistent with capacitation (sperm; LSA-treated and control sperm): > 75%
effect on percentage of motile sperm and sperm progression (sperm): Neither the percentage of motile sperm or sperm progression were effected
fertilization in IVF trials (mature oocytes; post-capacitation (Post-C, PC) treatment): blocked fertilization
fertilization in IVF trials (mature oocytes; pre-capacitation (prewash, PW, Pre-C) treatment): blocked fertilization
LD50 [2]: > 40000 mg/kg

Substance: polyanetholesulfonic acid [PASA]
binding of treated sperm to the zona pellucida of immature oocytes (in words) ([1]; treatment post-capacitation (PC) or pre-wash (PW), FIG. 3): inhibited their binding to the zona pellucida
